Assay results taken from US9220262B2, “Use of acylcyclohexanedione carboxylic acid or salts thereof in combination with acylcyclohexanedione carboxylic acid esters for improving the development of gramineous plants” (BASF SE, priority 2008, dated 2015).

Columns and labels:
Assay type in all cases: in vivo
[1] = tested on: Winter wheat of the "Bussard" cultivar; experiment: Reduction of shoot growth in winter wheat, field test
Procedure: Winter wheat of the “Bussard” cultivar was cultivated under field conditions. To “provoke” significant lodging, the supply of the nutrient element nitrogen was deliberately selected too high. The remaining growing conditions corresponded to customary practice. The plants were treated with the inventive active ingredient combination at the BBCH 31/32 development stage (1- to 2-node stage) as a foliar application with a liquid volume of 200 I/ha. Prohexadione-Ca (“ProCa”) (50 g/ha) was used as Regalis (BASF) and trinexapac-ethyl (“TriEt”) (75 g/ha) as Moddus (Syngenta). The shoot length of the plants was measured at various times from the treatment until they were ready for harvest. The following results were obtained (data in centimeters): […]

[2] = tested on: Wheat plants of the "Cubus" cultivar; experiment: Reduction of shoot growth in winter wheat, greenhouse test
Procedure: Wheat plants of the “Cubus” cultivar were cultivated in pots of diameter 12 cm on a customary growing substrate. The plants were treated at BBCH development stage 11/12 (1-2 leaves unfolded) at a shoot length of 16 cm as a foliar application with a liquid volume of 750 I/ha. Both prohexadione-Ca (“ProCa”) and trinexapac-ethyl (“TriEt”) were used as technical grade active ingredients. To prepare an applicable spray liquor, the adjuvant LI-700 (Loveland Products, Inc., Greeley, Colo., USA) was added in a concentration of 0.1%. The shoot length of the plants was measured at different times after the treatment. The following results were obtained (data in centimeters): […]

[3] = tested on: Winter wheat of the "Bussard" cultivar; experiment: Degree of stem lodging in winter wheat ready for harvest, field test; conditions: crops ready for harvest; for Degree of lodging: % lodged area x intensity (0-100) / 100
Procedure: Winter wheat of the “Bussard” cultivar was cultivated under field conditions. To “provoke” significant lodging, the supply of the nutrient element nitrogen was deliberately selected too high. The remaining growing conditions corresponded to customary practice. The plants were treated with the inventive active ingredient combination at the BBCH 31/32 development stage (1- to 2-node stage) as a foliar application with a liquid volume of 200 I/ha. Prohexadione-Ca (“ProCa”) (50 g/ha) was used as Regalis (BASF) and trinexapac-ethyl (“TriEt”) (75 g/ha) as Moddus (Syngenta). The shoot length of the plants was measured at various times from the treatment until they were ready for harvest. The following results were obtained (data in centimeters):
For crops ready for harvest from the test, the degree of stem lodging was determined. This value is the product of the percentage area in which the wheat plants are no longer upright with the intensity of lodging (0=plants are upright/100=plants lie flat on the ground) divided by 100. The values obtained here likewise lead to the conclusion of a synergistic interaction of the active ingredients involved: […]

[4] = 25 g/ha foliar, 0 days after treatment
[5] = 25 g/ha foliar, 5 days after treatment
[6] = 25 g/ha foliar, 8 days after treatment
[7] = 25 g/ha foliar, 11 days after treatment
[8] = 50 g/ha foliar, 0 days after treatment
[9] = 50 g/ha foliar, 5 days after treatment
[10] = 50 g/ha foliar, 8 days after treatment
[11] = 50 g/ha foliar, 11 days after treatment
[12] = 100 g/ha foliar, 0 days after treatment
[13] = 100 g/ha foliar, 5 days after treatment
[14] = 100 g/ha foliar, 8 days after treatment
[15] = 100 g/ha foliar, 11 days after treatment

| SMILES | shoot length [2, 4] | shoot length [2, 5] | shoot length [2, 6] | shoot length [2, 7] | shoot length [2, 8] | shoot length [2, 9] | shoot length [2, 10] | shoot length [2, 11] | shoot length [2, 12] | shoot length [2, 13] | shoot length [2, 14] | shoot length [2, 15] | further results |
| --- | --- | --- | --- | --- | --- | --- | --- | --- | --- | --- | --- | --- | --- |
| CCC(=O)C1=C([O-])CC(C(=O)[O-])CC1=O.[Ca+2] (stereo not drawn) [ProCa, prohexadione-Ca] | 16 cm | 23.0 cm | 26.6 cm | 31.1 cm | 16 cm | 23.0 cm | 26.3 cm | 29.5 cm | 16 cm | 22.5 cm | 24.0 cm | 25.8 cm | shoot length ([1]; 50 g/ha (as Regalis) foliar, 0 days after treatment): 43.0 cm; shoot length ([1]; 50 g/ha (as Regalis) foliar, 7 days after treatment): 50.0 cm; shoot length ([1]; 50 g/ha (as Regalis) foliar, 21 days after treatment): 69.3 cm; shoot length ([1]; 50 g/ha (as Regalis) foliar, 30 days after treatment): 89.0 cm; shoot length ([1]; 50 g/ha (as Regalis) foliar, 37 days after treatment): 99.5 cm; shoot length ([1]; 50 g/ha (as Regalis) foliar, 49 days after treatment): 119.8 cm; shoot length ([1]; 50 g/ha (as Regalis) foliar, 63 days after treatment): 120.0 cm; Improvement over control [%] (degree of lodging) ([3]; 50 g/ha): 11%; Improvement over control absolute (degree of lodging) ([3]; 50 g/ha): 10; Degree of lodging ([3]; 50 g/ha): 81 |
| CCOC(=O)C1CC(=O)C(=C(O)C2CC2)C(=O)C1 (stereo not drawn) [TriEt, trinexapac-ethyl] | 16 cm | 24.6 cm | 27.9 cm | 32.9 cm | 16 cm | 24.4 cm | 26.5 cm | 31.8 cm | 16 cm | 22.3 cm | 23.6 cm | 28.5 cm | shoot length ([1]; 75 g/ha (as Moddus) foliar, 0 days after treatment): 43.0 cm; shoot length ([1]; 75 g/ha (as Moddus) foliar, 7 days after treatment): 54.5 cm; shoot length ([1]; 75 g/ha (as Moddus) foliar, 21 days after treatment): 76.3 cm; shoot length ([1]; 75 g/ha (as Moddus) foliar, 30 days after treatment): 97.8 cm; shoot length ([1]; 75 g/ha (as Moddus) foliar, 37 days after treatment): 102.8 cm; shoot length ([1]; 75 g/ha (as Moddus) foliar, 49 days after treatment): 119.8 cm; shoot length ([1]; 75 g/ha (as Moddus) foliar, 63 days after treatment): 121.0 cm; Degree of lodging ([3]; 75 g/ha): 93 |
